Data as given in patent US11576987B2, “Compositions and methods of treating melanoma” (UNIVERSITY OF IOWA RESEARCH FOUNDATION, priority 2016, dated 2023).
Where a name gives a salt, the structure may show the parent alone.

What was measured:
[1] = system: metastatic melanoma; settings: cited from earlier work
[2] = target: T1, MCR1 (Homo sapiens, UniProt Q01726); experiment: Radiobinding assay with [125I]-NDP-a-MSH after drug incubation; assay type: cell-based; settings: SK-MEL3 and A2058 BRAF^V600E, 4 hours incubation, relative to untreated controls
T1 construct: endogenous in cells; host or cells: SK-MEL3 BRAF V600E and A2058 BRAF V600E human melanoma cells
Procedure: FIGS. 11A-11D. MCR1 expression can be enhanced in human melanoma cells by incubation with PBA and FDA approved melanoma drugs. (A-B) Flow cytometry analysis of MC1R expression in human melanoma cells: (A) SK-MEL3 BRAF^V600E; (B) A2058 BRAF^V600E; incubated for 4 hours with clinically-relevant concentrations of BRAFi: PLX4032 (10 μM), GSK2118436 (2 μM); MEKi: GDC0973 (2 μM), GSK1120212 (2 μM); 4-PBA (4 mM). Cells were stained with anti-MC1R-phycoerythrin (PE) monoclonal antibody conjugate. Fluorescence intensity was corrected by PE-conjugated isotype. Data were expressed as normalized mean fluorescence intensity (NMFI; n=4±SD; *p<0.05). […] (C) SK-MEL3 BRAF^V600E; and (D) A2058 BRAF^V600E was confirmed by radiobinding assay using MCR1-specific peptide [^125I]-NDP-a-MSH following incubation for 4 hours with PBA and FDA approved drugs (as in FIG. 10). […] Binding expressed as radioactivity bound relative to untreated controls (same cells) (n=4±SD; *p<0.05).
PCR measurements give information on the cellular response to drug treatments, but competitive binding assays convey a specific measure of changes in receptor expression (protein level) and changes in ligand-binding interactions as a result of drug treatments (FIGS. 11A-11B). After drug treatments, receptor expression is determined using synthetic α-MSH analog [^125I]-Nle^4-D-Phe^7-alpha-MSH ([^125I]-NDP-MSH) routinely as in FIG. 16D. […]

[3] = PBA co-administration: kidney and tumor uptake of [203Pb]DOTA-MCR1; assay type: in vivo, mice; settings: PBA 120 mg/kg co-administered i.v. or i.p., 2 h p.i.
Procedure: FIGS. 14A-14B. […] Results are ID %/g tissue±SD; **P<0.01; ****P<0.0001. (B Right) Pre-administered of PBA (i.p. 60 mg/kg) and BRAFi (vemurafenib; p.o. 5 mg/kg) 3 h prior to tail vein injection of 13 MBq [^203Pb]DOTA-MCR1 in human (A2058) melanoma-bearing athymic nu/nu mice (SPECT image 1 h p.i.); (B Left) An identical animal was administered an identical dose of [^203Pb]DOTA-MCR1 without PBA/BRAFi (saline). Images were identically processed and analyzed using Inveon Workplace software (identical contrast, intensity, etc.).
PBA relieves ER-stress through nonspecific binding to misfolded proteins in the ER. Thus, it was hypothesized that co-injection could inhibit peptide uptake in kidneys in the same fashion as amino acid co-infusions used clinically. This is reasonable because the megalin-cubulin system for reuptake and recirculation of nutrients in the proximal and distal tubules involves nonspecific binding and endocytosis of proteins, amino acids, and nutrients. results support the hypothesis that co-injection of PBA can serve to reduce kidney accumulation of radiopeptides in the kidneys (FIGS. 14A-B).

[4] = system: MCR1 expression; experiment: Pharmacological enhancement of MCR1 expression in human melanoma cells by drug incubation; assay type: cell-based; settings: human melanoma cells, incubation with drug
Text: Melanoma if detected early can be cured by surgery, but metastatic melanoma is lethal. New therapies (e.g., immunotherapy; BRAF inhibition, BRAFi) and combinations extend life, but low response rates, acquired drug resistance, and serious side effects are major challenges to improving outcomes for disseminated disease (5 y survival 17%). Peptide-based radionuclide therapy targeted to the melanocortin-receptor type 1 (MCR1-RT) has long been considered a promising alternative; and MCR1-RT has achieved complete responses in mouse models (B16). However, MCR1 expression is heterogeneous/low in human melanoma, and as a result, no previous MCR1-RT study has employed successfully human melanoma cell xenografts. […] This introduces innovative Pb-specific chelator combined with a “click-cyclized” peptide (PSC-C-MCR1) to improve tumor:kidney ratio of radionuclide uptake 7-fold. An effective therapy for metastatic melanoma is developed that combines MCR1-RT with pharmacological agents (PBA; BRAFi/MEKi; HDACi) that enhance MCR1 expression.
Melanoma is the fastest growing cancer incidence in the United States. Surgery combined with radiation can be curative at early stages. However, metastatic melanoma is almost uniformly fatal (5-yr survival 17%). Recent breakthrough targeted MAPKi therapies (e.g., BRAFi) and immunotherapies (e.g., PD-1 inhibitors) have improved outcomes, but low response rates, acquired drug resistance, and adverse side effects limit quality of life for metastatic melanoma patients. For example, approval of immune-checkpoint inhibitor ipilimumab was based on an improvement in overall survival of only 3.7 months (overall response <15%). Combination immunotherapies have improved response (up to 61%), but grade 3/4 adverse events (up to 55%) often lead to therapy discontinuation (up to 36%). For targeted therapies, BRAF inhibitor vemurafenib was approved based on overall survival at 6 months of 84% vs 64% in the control arm (dacarbazine). Combining BRAFi with MEK inhibitors (MEKi) has led to modest improvements, yet recurrence is virtually inevitable. The mechanisms of acquired drug resistance are complex, and include altered/alternative oncogenic pathways; tumor heterogeneity; and enhanced DNA repair. Melanocortin-receptor type 1 targeted radionuclide therapy (MCR1-RT) has long been considered a promising alternative treatment for melanoma; and MCR1-targeted α-particle therapy (^212Pb) has achieved complete responses in mice bearing mouse (B16) tumors that highly express MCR1. However, these studies have been confined primarily to mouse melanoma (B16) cells because MCR1 expression is heterogeneous/low in human melanoma.
Combination therapies for metastatic melanoma are emerging as common practice (e.g., BRAFi plus MEK; and combination immunotherapies), but melanoma almost invariably develops resistance. MCR1-RT has long been considered a promising alternative, but previous therapy studies have been limited to the use of B16 mouse melanoma cells that highly express the MCR1 protein, because native MCR1 expression in human melanoma is heterogeneous/low.

## O=C(O)CCCc1ccccc1 [PBA, 4-phenylbutyric acid, sodium salt]
[1]
  tolerated dose in patients: up to 27 g/day
[2]
  binding of MCR1-specific peptide [125I]-NDP-a-MSH: increases binding of MCR1-specific peptides
[3]
  kidney uptake of [203Pb]DOTA-MCR1: significantly blocked kidney uptake
  tumor accumulation of [203Pb]DOTA-MCR1: did not affect tumor accumulation
[4]
  enhancement of MCR1 expression: up to 8 fold
